Reference: article PMC3198036 (Frontiers in Pharmacology, 2011)
“And” between values parts separate entries of the source, which are not always exact repeats. Equal entries are not always repeated. Structures can show the parent of a compound that is named as a salt. Where two headings read alike, the source gives them in different places.

Assays:
[1] = target: nicotinic acetylcholine receptors (nAChRs), [^3H]-epibatidine binding sites in rat cerebral cortex; test: Homogenate binding assay with [^3H]-epibatidine, rat cerebral cortex homogenates
[2] = target: nicotinic acetylcholine receptors (nAChRs), [^3H]-epibatidine binding sites in rat cerebral cortex
[3] = target: nicotinic acetylcholine receptors (nAChRs), [^3H]-epibatidine binding sites in rat cerebellum
[4] = test system: nAChRs ([^3H]-epibatidine binding sites) in rat cortex and cerebellum; conditions: in vivo
[5] = test system: nicotinic acetylcholine receptors (nAChRs), [^3H]-epibatidine binding sites in rat cerebellum; remark: listed apart in the source

For `O=c1cccc2n1C[C@@H]1CNC[C@H]2C1` [Cytisine, cytisine], which pKihigh [1] is on record?
The pKihigh was 9.4 ± 0.0.

And the pKilow [1]?
The pKilow was 7.2 ± 0.2.

What about the pKihigh [2] of the same compound?
Its pKihigh is 8.7 ± 0.1.

What about the pKilow [2] of the same compound?
The pKilow was 6.7 ± 0.1.

What does the source list for `CNC1(C)C2CCC(C2)C1(C)C` (stereo not drawn) [Mecamylamine, mecamylamine hydrochloride]?
Competition in the [^3H]-epibatidine binding assay [1]: failed to compete; pKi (single site; one-site fit) ([1]; cortex homogenates, 200 pM [^3H]-epibatidine, 5 h, 4°C): NI (NI, no inhibition); Competition in the [^3H]-epibatidine binding assay [2]: failed to compete; pKi (single site; cell spans pKihigh and pKilow columns) ([2]; cortex segments, 400 pM [^3H]-epibatidine, 28 h, 4°C): NI (NI, no inhibition)

Which “Competition in the [^3H]-epibatidine binding assay” value [1] does the source give for `C[N+](C)(C)CCCCCC[N+](C)(C)C` [Hexamethonium, hexamethonium chloride] here?
Its value is “competitive”.

What about the “pKi (single site; one-site fit)” value [1] of the same compound?
Its value is 4.0 ± 0.1.

And the “Competition in the [^3H]-epibatidine binding assay” value [2]?
Its value is “competitive”.

And the “pKi (single site; cell spans pKihigh and pKilow columns)” value [2]?
Its value is 3.4 ± 0.1.

How did the pKi [1] turn out when `CN1CCC[C@H]1c1cccnc1` [Nicotine, nicotine] was run?
The pKi was 8.1 ± 0.1.

What about the “pKi (single site; one-site fit)” value [1] of the same compound?
Its value is 8.4 ± 0.1.

And the pKihigh [3]?
Its pKihigh is 8.2 ± 0.1.

And the pKilow [3]?
Its pKilow is 6.3 ± 0.1.

And the “Upregulation of nAChRs” value [4]?
Its value is “no upregulation”.

And the pKihigh [2]?
Its pKihigh is 7.8 ± 0.2 and 7.9 ± 0.1.

What about the pKilow [2] of the same compound?
Its pKilow is 6.3 ± 0.2 and 6.5 ± 0.1.

And the “pKi (single site; cell spans pKihigh and pKilow columns)” value [5]?
The value was 7.1 ± 0.2.

For `CO[C@H]1CC=C2CCN3CCC4=C(CC(=O)OC4)[C@]23C1` [Dihydro-β-erythroidine, dihydro-β-erythroidine], which pKihigh [1] is on record?
The pKihigh was 7.7 ± 0.2.

And the pKilow [1]?
The pKilow was 6.3 ± 0.1.

And the pKihigh [2]?
The pKihigh was 7.1 ± 0.1.

What about the pKilow [2] of the same compound?
The pKilow was 5.7 ± 0.2.
